# Test results reported in US20250057985A1, “REEXPRESSION OF HNF4A TO ALLEVIATE CANCER-ASSOCIATED CACHEXIA” (YEDA RESEARCH AND DEVELOPMENT CO. LTD., priority 2022, published 2025).
# Experiments:
# STAT3 = biological target: T1, STAT3 (Mus musculus, UniProt P42227); assay: STAT3 inhibitor in IL-6-treated primary hepatocytes, OTC RT-PCR; format: cell-based; details: 10 μM inhibitor 30 min then IL-6 48 h
# T1 construct: endogenous in cells; host or cells: primary mouse hepatocytes isolated by liver perfusion
# Procedure: Primary hepatocytes culture: Following perfusion, 1×10^6 isolated hepatocytes were seeded in 3 ml Williams E+Glutamx-TM-1 in 6 well plate. Four hours after, the medium was aspirated, and the cells were washed with PBS and incubated with 2 ml Williams E+Glutamx-TM-1 overnight. Cells were treated with 10 μM of HJC0152 STAT3 inhibitor (Selleckchem #58561), for 30 minutes cells and then treated with 10 ng/ml recombinant mouse IL-6 (R&D #406-ML-005) for 48 h.
# RNA processing and quantitative PCR: RNA was extracted from liver tissue by using QIAzol Lysis Reagent (according to QIAzol® Handbook) or by Direct-zol™ MiniPrep Plus Kit (Zymo Research ZR-R2070). For hepatocytes RNA sequencing, RNA was extracted from dissociated hepatocytes. Following liver perfusion as previously described, hepatocytes were resuspended in QIAzol and frozen in −80° C. RNA was extracted by using QIAzol Lysis Reagent. RNA from cultured primary hepatocytes was extracted by using RNeasy Mini Kit (QIAGENe #74104). To evaluate mtDNA copy number, total DNA was isolated using DNA purification kit (DNeasy Blood & Tissue Kits Qiagen #69504). cDNA was synthesized from […] RNA by using qScript cDNA Synthesis Kit (Quanta #95749). Detection on cDNAs was performed using Syber Green Fast mix Perfect CT (Quantabio #95073) with the required primers (qPCR primer list—Table 1)
# CD8+ splenocytes = details: ex-vivo, 1 mM ammonia, WT mice
# Procedure: Activation of T cells from mice spleens: 10 weeks old WT female Balb/c mice were sacrificed and spleen harvested into cold-PBS on ice. Spleens were homogenized by syringe plunger through 70 uM strainer and washed with PBS. Following centrifugation at 1200 rpm for 5 min pellets were treated with RBC lysis buffer according to the manufacturer's instruction. Cells were resuspended in 2×10^6 cells/ml in splenocytes medium (complete RPMI medium supplemented with 50 μM β-mercaptoethanol, […] and Non-essential amino acids) supplemented with 6,000 IU/mL IL-2 (Chiron, rhIL2) and seeded in 24 well plates pre-coated with CD3 (BLG #100302). Following 72 h, cells were collected, centrifuged at 1200 rpm for 5 min, washed with splenocytes medium×2, and analyzed using CytoFLEX (Beckman Coulter) FACS analyzer.
# primary hepatocytes = assay: IL-6 supplementation of primary hepatocytes, RT-PCR; format: cell-based, mouse
# Procedure: Liver Perfusions and hepatocytes dissociation: Livers of anaesthetized mice were perfused, with specific adjustments. The vena cava was inserted with 27 G syringe, fixed on the perfusion line. 10 ml of pre-warmed to 42° C. PPML buffer followed by 25 ml of pre-warmed to 42′C PM buffer with Liberase (Roche, cat #05401127001) were perfused through the vena cava. Immediately at the beginning of the perfusion, the portal vein was cut. Following perfusion of 25 ml of PM buffer and Liberase solution, livers were harvested into a Petri dish with 10 ml of pre-warmed PM buffer and chopped by forceps. Dissociated liver cells were collected and filtered through a slanted 100 um cell strainer. Cells were spin down at 30 g for 3 min at 4° C. to get hepatocytes enriched pellet. Pellet was resuspended in […] cold PM buffer. To enrich live hepatocytes, 21.6 ml cold Percoll (G.E. Healthcare #17-0891-01) mixed with +2.4 ml DPBSX10+CaCl2)+MgCl2 was added to the cells. Cells were centrifuged at 600 rpm for 10 minutes at 4° C. Supernatant containing the dead cells was aspirated, and cells were resuspended in 25 ml of cold Williams E+Glutamx-TM-1 (Gibco, cat #32551, 1% penstrep, 1% FBS, 1% L-Glutamine). […]
# RNA processing and quantitative PCR: RNA was extracted from liver tissue by using QIAzol Lysis Reagent (according to QIAzol® Handbook) or by Direct-zol™ MiniPrep Plus Kit (Zymo Research ZR-R2070). […]
# T1 sequence (P42227 whole entry, the tested form may be a part): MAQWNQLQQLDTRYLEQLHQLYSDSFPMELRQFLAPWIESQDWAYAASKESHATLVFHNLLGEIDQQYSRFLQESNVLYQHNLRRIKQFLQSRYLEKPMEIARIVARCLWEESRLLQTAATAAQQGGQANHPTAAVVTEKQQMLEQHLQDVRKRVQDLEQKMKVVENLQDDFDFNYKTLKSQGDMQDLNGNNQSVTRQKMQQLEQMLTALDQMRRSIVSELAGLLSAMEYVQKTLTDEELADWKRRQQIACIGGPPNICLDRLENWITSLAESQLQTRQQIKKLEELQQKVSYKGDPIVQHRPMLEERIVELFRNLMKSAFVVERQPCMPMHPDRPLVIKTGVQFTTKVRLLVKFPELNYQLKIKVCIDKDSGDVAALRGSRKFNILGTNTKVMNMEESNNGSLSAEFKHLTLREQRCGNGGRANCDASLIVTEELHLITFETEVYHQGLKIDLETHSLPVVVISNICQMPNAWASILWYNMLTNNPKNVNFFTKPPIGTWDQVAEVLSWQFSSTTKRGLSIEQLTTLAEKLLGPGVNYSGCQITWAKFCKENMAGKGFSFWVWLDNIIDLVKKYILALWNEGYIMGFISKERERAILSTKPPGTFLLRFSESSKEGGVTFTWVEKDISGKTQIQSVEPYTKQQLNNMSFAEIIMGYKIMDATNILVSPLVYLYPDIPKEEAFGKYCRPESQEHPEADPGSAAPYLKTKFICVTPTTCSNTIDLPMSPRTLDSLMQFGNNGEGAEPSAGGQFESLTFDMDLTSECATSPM
molecule,measurement,setting,value
NCCOc1ccc(Cl)cc1C(=O)Nc1ccc([N+](=O)[O-])cc1Cl [HJC0152],OTC expression levels in the presence of IL-6,STAT3,rescued
same,OTC expression levels in the presence of IL-6,STAT3; listed as HJCO152,restores
N [ammonia],activation of T-cells splenocytes,CD8+ splenocytes,reduced
same,survival of T-cells splenocytes,CD8+ splenocytes,reduced
"IL-6: recombinant mouse IL-6 (R&D #406-ML-005) (protein, UniProt P08505 25-211, looked up) Interleukin-6: FPTSQVRRGDFTEDTTPNRPVYTTSQVGGLITHVLWEIVEMRKELCNGNSDCMNNDDALAENNLKLPEIQRNDGCYQTGYNQEICLLKISSGLLEYHSYLEYMKNNLKDNKKDKARVLQRDTETLIHIFNQEVKDLHKIVLPTPISNALLTDKLESQKEWLRTKTIQFILKSLEEFLKVTLRSTRQT",RNA expression levels of OTC,"primary hepatocytes; 10 ng/ml recombinant mouse IL-6, 48 h",decreased
same,CCL2 RNA levels,primary hepatocytes; IL-6 supplementation,increased
